Experimental data as given in ChEMBL document CHEMBL5126511, “The evolution paths of some reprehensive scaffolds of RORγt modulators, a perspective from medicinal chemistry” (Eur J Med Chem, 2022).

Assays:
[1] = Metabolic stability in human liver microsomes assessed as clearance; assay type: ADME, Microsome; settings: read-out: CLH
[2] = Metabolic stability in rat liver microsomes assessed as intrinsic clearance; assay type: ADME, Microsome; settings: read-out: CLH

| microsomal CLint [1] | microsomal CLint [2] | Compound |
| --- | --- | --- |
| 97 µL/min/mg | 33 µL/min/mg | Cc1ncc(C(=O)Nc2cc(Cl)cc(CN3CCN(C(=O)C4CCCC4)[C@@H](C)C3)c2C)cn1 |
| – | < 25 µL/min/mg | Cc1ncc(C(=O)Nc2cn3ccnc3c(CN3CCN(c4noc(C(C)(C)C)n4)[C@@H](C)C3)c2C)cn1 |
| 30 µL/min/mg | – | Cc1ncc(C(=O)Nc2cn3ccnc3c(CN3CCN(C(=O)C4CCCC4)[C@@H](C)C3)c2C)cn1 |
